The results in this text go back to patent publication US5153223A, “Biurets, aminocarbonyl carbamates, and aminocarbonyl thiocarbamates useful as ACAT inhibitors” (priority 1991, dated 1992).

One may read the IC50 as the concentration that gives 50% inhibition.

For the first assay, the target named is T1, acyl-CoA: cholesterol acyltransferase (ACAT) (Oryctolagus cuniculus, UniProt G1SFD9).
T1 construct: tissue preparation containing rabbit intestinal microsomes; from tissue; host or cells: rabbit intestinal microsomes
T1 sequence (G1SFD9 1-524): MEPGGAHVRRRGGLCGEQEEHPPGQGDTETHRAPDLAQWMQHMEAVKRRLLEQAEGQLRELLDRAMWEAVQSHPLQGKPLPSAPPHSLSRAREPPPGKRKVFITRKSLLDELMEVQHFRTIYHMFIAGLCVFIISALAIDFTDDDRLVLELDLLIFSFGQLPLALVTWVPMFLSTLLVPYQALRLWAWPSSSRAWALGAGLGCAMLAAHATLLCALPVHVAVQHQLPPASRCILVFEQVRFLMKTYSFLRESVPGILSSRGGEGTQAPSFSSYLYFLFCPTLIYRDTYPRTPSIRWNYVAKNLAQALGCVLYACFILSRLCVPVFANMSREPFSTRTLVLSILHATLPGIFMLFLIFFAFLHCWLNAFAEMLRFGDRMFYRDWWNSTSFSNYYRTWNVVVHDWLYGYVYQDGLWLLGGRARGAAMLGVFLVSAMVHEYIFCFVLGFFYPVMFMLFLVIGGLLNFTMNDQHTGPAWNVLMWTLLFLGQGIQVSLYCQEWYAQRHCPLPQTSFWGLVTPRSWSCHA
In words: In vitro ACAT inhibition (IAI): radiolabeled cholesterol oleate formed from radiolabeled oleic acid in rabbit intestinal microsomes. It is filed as biochemical.
Settings: not given
As for the experimental part:
The ability of representative compounds of the present invention to inhibit ACAT was measured using an in vitro test more fully described in F. J. Field and R. G. Salone, Biochemica et Biophysica 712:557-570 (1982). The test assesses the ability of a test compound to inhibit the acylation of cholesterol by oleic acid by measuring the amount of radiolabeled cholesterol oleate formed from radiolabeled oleic acid in a tissue preparation containing rabbit intestinal microsomes.
The data appear in Table 1 where they are expressed as IC50 values; i.e., the concentration of test compound required to inhibit the activity of the enzyme by 50%.
`CC(C)c1cccc(C(C)C)c1OC(=O)NC(=O)NC(c1ccccc1)c1ccccc1` [Example 25, [[(diphenylmethyl)amino]carbonyl]carbamic acid, 2,6-bis(1-methylethyl)phenyl ester] showed an IC50 greater than 1 µM.

Staying with this assay, now noted: rabbit intestinal microsomes, ACAT; read-out: IAI IC50.
On to `CC(C)c1cccc(C(C)C)c1NC(=O)N(C)C(=O)N(c1ccccc1)c1ccccc1` [Example 1, N'-[2,6-bis(1-methylethyl)phenyl]-2-methyl-N,N-diphenyliminodicarbonic diamide], for which the 50% inhibitory concentration (IC50) is 0.6 µM.

On to `CC(C)c1cccc(C(C)C)c1NC(=O)NC(=O)NC(c1ccccc1)c1ccccc1` [Example 2, N-[2,6-bis(1-methylethyl)phenyl)-N'-(diphenylmethyl) iminodicarbonic amide], for which the 50% inhibitory concentration (IC50) is greater than 1 µM.

Regarding `CC(C)c1cccc(C(C)C)c1NC(=O)NC(=O)Nc1c(C(C)C)cccc1C(C)C` [Example 3, N,N'-bis[2,6-bis(1-methylethyl)phenyl]imidodicarbonic diamide], the IC50 is greater than 5 µM.

Take `CC(C)c1cccc(C(C)C)c1NC(=O)NC(=O)N1c2ccccc2CCc2ccccc21` [Example 8, N-[[[2,6-bis(1-methylethyl)phenyl]amino]carbonyl]-10,11-dihydro-5H-dibenz[b,f]azepin-5-carboxamide]: the IC50 amounted to 0.89 µM.

Turning to `CC(C)c1cccc(C(C)C)c1NC(=O)NC(=O)N1CCCC1` [Example 9, N-[[[2,6-bis(1-methylethyl)phenyl]amino]carbonyl]-1-pyrrolidinecarboxamide], the IC50 is greater than 5 µM.

On to `CCN(CC)C(=O)NC(=O)Nc1c(C(C)C)cccc1C(C)C` [Example 10, N'-[2,6-bis(1-methylethyl)phenyl]-N,N-diethylimidodicarbonic diamide], for which the half-inhibitory concentration (IC50) is greater than 5 µM.

Turning to `CC(C)c1cccc(C(C)C)c1NC(=O)NC(=O)N1CCC(c2ccccc2)CC1` [Example 13, N-[[[2,6-bis(1-methylethyl)phenyl]amino]carbonyl]-1-[(4-phenyl)piperidine]carboxamide], the half-inhibitory concentration (IC50) worked out at 3.5 µM.

Tested on in the next assay: not listed separately
In words: In vivo screen APCC: plasma total cholesterol in rats on high fat, high cholesterol diet with 0.5% cholic acid. Set-up: species or system male Sprague-Dawley rats. Conditions: rat APCC, 30 mg/kg, high fat high cholesterol diet overnight. The source says:
In one in vivo screen designated APCC, male Sprague-Dawley rats (200 to 225 g) were randomly divided into treatment groups and dosed at 4 PM with either vehicle (CMC/Tween) or suspensions of compounds in vehicle. The norma chow diet was then replaced with a high fat, high cholesterol diet with 0.5% cholic acid. The rats consumed this diet ad libitum during the night and were sacrificed at 8 AM to obtain blood samples for cholesterol analysis using standard procedures. Statistical differences between mean cholesterol values for the same vehicle were determined using analysis of variance followed by Fisher's least significant test. Compounds were dosed at 30 mg/kg unless otherwise noted.
On to `CC(C)c1cccc(C(C)C)c1OC(=O)NC(=O)NC(c1ccccc1)c1ccccc1` [Example 25, [[(diphenylmethyl)amino]carbonyl]carbamic acid, 2,6-bis(1-methylethyl)phenyl ester], for which the “% Change in Plasma TC Values (mg/dL)” value was “No change”.

Staying with this assay, now noted: rat APCC, 30 mg/kg, high fat high cholesterol diet overnight; read-out: % Change in Plasma TC Values (mg/dL).
Consider `CCCCCCCCCCC(C)OC(=O)NC(=O)Nc1c(C(C)C)cccc1C(C)C` (racemic) [Example 19, (±)[[[2,6-bis(1-methylethyl)phenyl]amino]carbonyl]carbamic acid, 1-methylundecyl ester], for which the change in vivo at 30 mg/kg is -26%.

With `CCCCCCCC(C)OC(=O)NC(=O)Nc1c(C(C)C)cccc1C(C)C` (racemic) [Example 20, (±)[[[2,6-bis(1-methylethyl)phenyl]amino]carbonyl]carbamic acid, 1-methyloctyl ester], the change in vivo at 30 mg/kg is -24%.

For the molecule `CCCCCC(C)OC(=O)NC(=O)Nc1c(C(C)C)cccc1C(C)C` (racemic) [Example 21, (±)[[[2,6-bis(1-methylethyl)phenyl]amino]carbonyl]carbamic acid, 1-methylhexyl ester], the change in vivo at 30 mg/kg was -22%.

For the molecule `CCCCCCCCC(C)OC(=O)NC(=O)Nc1c(C(C)C)cccc1C(C)C` (racemic) [Example 22, (±)[[[2,6-bis(1-methylethyl)phenyl]amino]carbonyl]carbamic acid, 1-methylnonyl ester], the change in vivo at 30 mg/kg was -22%.

With `CCCCCCCCCCCCCCC(C)OC(=O)NC(=O)Nc1c(C(C)C)cccc1C(C)C` (racemic) [Example 23, (±)[[[2,6-bis(1-methylethyl)phenyl]amino]carbonyl]carbamic acid, 1-methylpentadecyl ester], the change in vivo at 30 mg/kg was -26%.

Regarding `CCCCCCCCCCCCC(C)OC(=O)NC(=O)Nc1c(C(C)C)cccc1C(C)C` (racemic) [Example 24, (±)[[[2,6-bis(1-methylethyl)phenyl]amino]carbonyl]carbamic acid, 1-methyltridecyl ester], the change in vivo at 30 mg/kg was -33%.

For `CC(C)c1cccc(C(C)C)c1NC(=O)N(C)C(=O)N(c1ccccc1)c1ccccc1` [Example 1, N'-[2,6-bis(1-methylethyl)phenyl]-2-methyl-N,N-diphenyliminodicarbonic diamide], the change in vivo at 30 mg/kg was -9%.

As to `CCCCCCCCCCCCCCN(C)C(=O)NC(=O)Nc1c(C(C)C)cccc1C(C)C` [Example 14, N'-[2,6-bis(1-methylethyl)phenyl]-N-methyl-N-tetradecylimidodicarbonic diamide], the change in vivo at 30 mg/kg was -8%.

On to `CC(C)c1cccc(C(C)C)c1NC(=O)NC(=O)Oc1c(C(C)C)cccc1C(C)C` [Example 15, [[[2,6-bis(1-methylethyl)phenyl]amino]carbonyl] carbamic acid,2,6-bis(1-methylethyl)phenyl ester], for which the change in vivo at 30 mg/kg is -9%.

With `CCCCCCCCCCCCC(C)(C)OC(=O)NC(=O)Nc1c(C(C)C)cccc1C(C)C` [Example 17, [[[2,6-bis(1-methylethyl)phenyl]amino]carbonyl]carbamic acid, 1,1-dimethyltridecyl ester], the change in vivo at 30 mg/kg is -14%.

Regarding `CCCCCCCCCCCCOC(=O)NC(=O)Nc1c(C(C)C)cccc1C(C)C` [Example 18, [[[2,6-bis(1-methylethyl)phenyl]amino]carbonyl]carbamic acid, dodecyl ester], the change in vivo at 30 mg/kg is -38%.

The assay is the same for the next values; noted with them: rat APCC, *Dosed at 50 mg/kg, high fat high cholesterol diet overnight; read-out: % Change in Plasma TC Values (mg/dL).
With `CC(C)c1cccc(C(C)C)c1NC(=O)NC(=O)N(Cc1ccccc1)Cc1ccccc1` [Example 4, N'-[2,6-bis(1-methylethyl)phenyl]-N,N-bis(phenylmethyl)imidodicarbonic diamide], the change in vivo at 50 mg/kg is -13%.

`CC(C)c1cccc(C(C)C)c1NC(=O)NC(=O)N(c1ccccc1)c1ccccc1` [Example 5, N'-[2,6-bis(1-methylethyl)phenyl]-N,N-diphenylimidodicarbonic diamide]: the change in vivo at 50 mg/kg was -40%.

`CCCCCCCCN(CCCCCCCC)C(=O)NC(=O)Nc1c(C(C)C)cccc1C(C)C` [Example 6, N-[2,6-bis(1-methylethyl)phenyl]-N,N-dioctylimidodicarbonic diamide]: the change in vivo at 50 mg/kg was -5%.

Turning to `CCCCN(CCCC)C(=O)NC(=O)Nc1c(C(C)C)cccc1C(C)C` [Example 7, N'-[2,6-bis(1-methylethyl)phenyl]-N,N-dibutylimidodicarbonic diamide], the change in vivo at 50 mg/kg was -23%.

Turning to `CC(C)c1cccc(C(C)C)c1NC(=O)NC(=O)N1c2ccccc2CCc2ccccc21` [Example 8, N-[[[2,6-bis(1-methylethyl)phenyl]amino]carbonyl]-10,11-dihydro-5H-dibenz[b,f]azepin-5-carboxamide], the change in vivo at 50 mg/kg is -18%.

`CC(C)c1cccc(C(C)C)c1NC(=O)NC(=O)N(Cc1ccccc1)C(C)C` [Example 11, N'-[2,6-bis(1-methylethyl)phenyl]-N-(1-methylethyl)-N-(phenylmethyl)imidodicarbonic diamide]: the change in vivo at 50 mg/kg was -27%.

`CC(C)c1cccc(C(C)C)c1NC(=O)NC(=O)N1c2ccccc2Sc2ccccc21` [Example 12, N-[[[2,6-bis(1-methylethyl)phenyl]amino]carbonyl]-10H-phenothiazine-10-carboxamide]: the change in vivo at 50 mg/kg is -19%.
